In patent US20050009894A1 (Aventis Pharma S.A., priority 2001, published 2005):
Like-named read-outs stand apart in the source and are kept apart here.

Target: T1, human KDR enzyme (Homo sapiens, UniProt P35968)
T1 construct: The cytoplasmic domain of human KDR enzyme is cloned in the form of a GST fusion; GST; made in house; host or cells: SF21 insect cells (baculovirus, pFastBac)
Test: Phosphorylation of the substrate PLCγ by the enzyme KDR in vitro (flashplate technique)
Type: biochemical
Procedure, shortened: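 GST-fused human KDR cytoplasmic domain (Sf21 baculovirus, ~60% pure; 100 ng/well) phosphorylating 2 μg GST-PLCγ SH2-SH3 fragment in MOPS pH 7.2 with MgCl2/MnCl2, 1 h at 37° C. Started with γ33P-ATP plus cold ATP (2 μM in start solution); flashplate radioactivity. % inhibition vs no-compound control; IC50 from dose-response curves.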

[1] = Table VII, degrees of activity by IC50 range, read-out: Activity
[2] = read-out: IC50 (μM) on inhibition of the phosphory-lation of PLCγ by KDR

T1 sequence (P35968 786-1356 limits assumed): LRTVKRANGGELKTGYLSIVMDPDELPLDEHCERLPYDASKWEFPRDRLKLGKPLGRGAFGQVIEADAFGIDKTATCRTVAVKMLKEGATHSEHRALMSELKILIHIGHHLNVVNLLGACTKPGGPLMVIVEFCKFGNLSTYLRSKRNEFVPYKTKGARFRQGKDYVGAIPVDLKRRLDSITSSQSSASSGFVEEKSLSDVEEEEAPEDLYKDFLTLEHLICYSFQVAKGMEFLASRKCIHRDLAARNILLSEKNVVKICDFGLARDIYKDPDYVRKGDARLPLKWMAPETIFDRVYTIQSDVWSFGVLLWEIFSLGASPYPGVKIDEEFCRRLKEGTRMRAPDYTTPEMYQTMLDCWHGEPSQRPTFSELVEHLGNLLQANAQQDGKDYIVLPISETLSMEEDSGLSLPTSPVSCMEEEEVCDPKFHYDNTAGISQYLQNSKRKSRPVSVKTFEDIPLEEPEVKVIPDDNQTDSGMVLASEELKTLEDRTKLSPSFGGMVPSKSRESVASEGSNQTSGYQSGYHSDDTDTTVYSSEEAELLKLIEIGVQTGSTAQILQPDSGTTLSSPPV

IC50 [1] [µM] | IC50 [2] [µM] | SMILES
> 3 |  | O=C(COc1cc(-c2nc3ccccc3[nH]2)[nH]n1)Nc1ccccc1 [Example 204, 2-[5-(1H-Benzoimidazol-2-yl)-1H-pyrazol-3-yloxy]-N-phenyl-acetamide]
0.3 to 3 |  | O=C(NCc1cccc(Br)c1)c1ccc2[nH]c(-c3n[nH]c4ccccc34)nc2c1 [Example 39, 2-(1H-Indazol-3-yl)-1H-benzoimidazole-5-carboxylic acid 3-bromo-benzylamide]
 | 0.33 | O=C(NCCc1ccccc1)c1ccc2[nH]c(-c3n[nH]c4ccccc34)nc2c1 [Example 6, 2-(1H-Indazol-3-yl)-1H-benzimidazole-5-carboxylic acid N-phenethylamide]
< 0.3 |  | O=C(NCc1ccc(Cl)cc1)c1ccc2[nH]c(-c3n[nH]c4ccccc34)nc2c1 [Example 168, 2-(1H-Indazol-3-yl)-1H-benzoimidazole-5-carboxylic acid 4-chloro-benzylamide]
0.3 to 3 |  | Cc1nn(C)cc1CNC(=O)c1ccc2[nH]c(-c3n[nH]c4ccccc34)nc2c1 [Example 43, 2-(1H-Indazol-3-yl)-1H-benzoimidazole-5-carboxylic acid (1,3-dimethyl-1H-pyrazol-4-ylmethyl)-amide]
0.3 to 3 |  | O=C(NCc1ccoc1)c1cccc2nc(-c3n[nH]c4ccccc34)[nH]c12 [Example 90, 2-(1H-Indazol-3-yl)-3H-benzoimidazole-4-carboxylic acid (furan-3-ylmethyl)-amide]
> 3 |  | COc1ccc(C(=O)Oc2cc(-c3nc4ccccc4[nH]3)[nH]n2)cc1 [Example 218, 4-Methoxy-benzoic acid 5-(1H-benzoimidazol-2-yl)-1H-pyrazol-3-yl ester]
0.3 to 3 |  | Cc1cc(C)cc(-c2ccc3nc(-c4[nH]nc5ccccc45)[nH]c3c2)c1 [Example 115, 3-[6-(3,5-Dimethyl-phenyl)-1H-benzoimidazol-2-yl]-2H-indazole]
0.3 to 3 |  | O=C(c1ccc2[nH]c(-c3n[nH]c4ccccc34)nc2c1)N1CCOCC1 [Example 150, [2-(1H-Indazol-3-yl)-1H-benzoimidazol-5-yl]-morpholin-4-yl-methanone]
> 3 |  | CN(C)c1ccc(C(=O)COc2cc(-c3nc4ccccc4[nH]3)[nH]n2)cc1 [Example 202, 2-[5-(1H-Benzoimidazol-2-yl)-1H-pyrazol-3-yloxy]-1-(4-dimethylamino-phenyl)-ethanone]
0.3 to 3 |  | O=C(NCc1cccnc1)c1ccc2[nH]c(-c3n[nH]c4ccccc34)nc2c1 [Example 38, 2-(1H-Indazol-3-yl)-1H-benzoimidazole-5-carboxylic acid (pyridin-3-ylmethyl)-amide]
> 3 |  | NS(=O)(=O)c1cc(C(=O)COc2cc(-c3nc4ccccc4[nH]3)[nH]n2)ccc1Cl [Example 211, 5-{2-[5-(1H-Benzoimida-zol-2-yl)-1H-pyrazol-3-yloxy]-acetyl}-2-chloro-benzenesulfonamide]
0.3 to 3 |  | CC(=O)Nc1ccc(CNC(=O)c2ccc3[nH]c(-c4n[nH]c5ccccc45)nc3c2)cc1 [Example 147, 2-(1H-Indazol-3-yl)-1H-benzoimidazole-5-carboxylic acid 4-acetylamino-benzylamide]
0.3 to 3 |  | O=C(NCC1COc2ccccc2O1)c1ccc2[nH]c(-c3n[nH]c4ccccc34)nc2c1 (stereo not drawn) [Example 65, 2-(1H-Indazol-3-yl)-1H-benzoimidazole-5-carboxylic acid (2,3-dihydro-benzo[1,4]dioxin-2-ylmethyl)-amide]
0.3 to 3 |  | CN(C)c1ccc(CNC(=O)c2ccc3[nH]c(-c4n[nH]c5ccccc45)nc3c2)cc1 [Example 35, 2-(1H-Indazol-3-yl)-1H-benzoimidazole-5-carboxylic acid 4-dimethylamino-benzylamide]
0.3 to 3 |  | O=S(=O)(Cc1ccccc1COc1cc(-c2nc3ccccc3[nH]2)[nH]n1)c1ccccc1 [Example 191, 2-[5-(2-Benzenesulfonylmethylbenzyloxy)-2H-pyrazol-3-yl]-1H-benzoimidazole]
0.3 to 3 |  | O=C(NCc1ccc(Br)cc1F)c1ccc2[nH]c(-c3n[nH]c4ccccc34)nc2c1 [Example 159, 2-(1H-Indazol-3-yl)-1H-benzoimidazole-5-carboxylic acid 4-bromo-2-fluoro-benzylamide]
0.3 to 3 |  | Fc1ccc(-c2ccc3nc(-c4[nH]nc5ccccc45)[nH]c3c2)cc1Cl [Example 103, 3-[6-(3-Chloro-4-fluoro-phenyl)-1H-benzoimidazol-2-yl]-2H-indazole]
0.3 to 3 |  | O=C(NCc1ccc(F)c(F)c1)c1ccc2[nH]c(-c3n[nH]c4ccccc34)nc2c1 [Example 160, 2-(1H-Indazol-3-yl)-1H-benzoimidazole-5-carboxylic acid 3,4-difluoro-benzylamide]
> 3 |  | Clc1ccc(-c2ccc3nc(-c4[nH]nc5ccccc45)[nH]c3c2)cc1 [Example 101, 3-[6-(4-Chloro-phenyl)-1H-benzoimidazol-2-yl]-2H-indazole]
0.3 to 3 |  | O=C(NCc1cc2ccccc2s1)c1ccc2[nH]c(-c3n[nH]c4ccccc34)nc2c1 [Example 54, 2-(1H-Indazol-3-yl)-1H-benzoimidazole-5-carboxylic acid (benzo[b]thiophen-2-ylmethyl)-amide]
> 3 |  | O=C(O)CCc1ccc(-c2ccc3nc(-c4[nH]nc5ccccc45)[nH]c3c2)cc1 [Example 140, 3-{4-[2-(2H-Indazol-3-yl)-3H-benzoimidazol-5-yl]-phenyl}-propionic acid]
> 3 |  | O=C(NCc1ccc(-c2ccc(F)cc2)cc1)c1ccc2[nH]c(-c3n[nH]c4ccccc34)nc2c1 [Example 164]
> 3 |  | O=C(COc1cc(-c2nc3ccccc3[nH]2)[nH]n1)c1ccc(-c2ccccc2)cc1 [Example 200, 2-[5-(1H-Benzoimidazol-2-yl)-1H-pyrazol-3-yloxy]-1-biphenyl-4-yl-ethanone]
0.3 to 3 |  | CC(C)=CCC/C(C)=C/COc1cc(-c2nc3ccccc3[nH]2)[nH]n1 [Example 184, 2-[5-(3,7-Dimethyl-octa-2,6-dienyloxy)-2H-pyrazol-3-yl]-1H-benzoimidazole]
0.3 to 3 |  | Cc1cc(CNC(=O)c2ccc3[nH]c(-c4n[nH]c5ccccc45)nc3c2)c(C)o1 [Example 53, 2-(1H-Indazol-3-yl)-1H-benzoimidazole-5-carboxylic acid (2,5-dimethyl-furan-3-ylmethyl)-amide]
< 0.3 |  | O=C(NCc1ccc(Cl)nc1)c1ccc2[nH]c(-c3n[nH]c4ccccc34)nc2c1 [Example 56, 2-(1H-Indazol-3-yl)-1H-benzoimidazole-5-carboxylic acid (6-chloro-pyridin-3-ylmethyl)-amide]
> 3 |  | O=C(Oc1cc(-c2nc3ccccc3[nH]2)[nH]n1)c1cc(C(F)(F)F)cc(C(F)(F)F)c1 [Example 226, 3,5-Bis-trifluoromethyl-benzoic acid 5-(1H-benzoimidazol-2-yl)-1H-pyrazol-3-yl ester]
> 3 |  | FC(F)(F)c1cccc(-c2ccc3nc(-c4[nH]nc5ccccc45)[nH]c3c2)c1 [Example 111, 3-[6-(3-Trifluoromethyl-phenyl)-1H-benzoimidazol-2-yl]-2H-indazole]
 | 0.61 | CN(Cc1ccccc1)C(=O)c1ccc2[nH]c(-c3n[nH]c4ccccc34)nc2c1 [Example 13, 2-(1H-Indazol-3-yl)-1H-benzimidazole-5-carboxylic acid N-benzyl-N-methylamide]
